Test results taken from patent US11583516B2, “Dash inhibitors, and uses related thereto” (Trustees of Tufts College, priority 2016, dated 2023).
Read-outs that look alike come from different tables or passages of the source.

Tests used:
G-CSF = experiment: Serum cytokine induction in mice (G-CSF screen); assay type: in vivo, BALB/c mice
From the text: No. MKC00B) • IL-18 (R&D Systems, Cat. […] Systems, Cat. No. […])

CT26 cells = experiment: CT26 cell viability; assay type: cell-based
MB49 tumor = experiment: MB49 efficacy studies; assay type: in vivo, C57BL/6 mice; conditions: celecoxib alone, various concentrations

SMILES	Average [G-CSF] at 6 hrs (G-CSF; 20 μg/animal PO) [pg/mL]	Average [G-CSF] at 6 hrs (G-CSF; 200 μg/animal SC) [pg/mL]	Average [G-CSF] at 6 hrs (G-CSF; 2000 μg/animal SC) [pg/mL]	EC50 (CT26 cells) [mM]	other results
N[C@@H](CCC(=O)O)C(=O)N1CCC[C@H]1B(O)O [Glu-boroPro]	340	210	16000	> 1	Average [G-CSF] at 6 hrs (G-CSF; 200 μg/animal PO): 160 pg/mL; Average [G-CSF] at 6 hrs (G-CSF; 2000 μg/animal PO): 2300 pg/mL
NC(N)=NCCC[C@H](N)C(=O)N1CCC[C@H]1B(O)O [Arg-boroPro]				> 1	
Cc1ccc(-c2cc(C(F)(F)F)nn2-c2ccc(S(N)(=O)=O)cc2)cc1 [celecoxib]					Tumor growth rate (MB49 tumor): no observed differences in tumor growth rates compared to control
CC(C)C[C@H](NC(=O)[C@H](Cc1ccccc1)NC(=O)c1cnccn1)B(O)O [Bortezomib]					EC50 (CT26 cells; Mus musculus, CT26): 3.6e-05 mM
C[C@H](N)C(=S)N1CCC[C@H]1B(O)O [ARI-2243]	330			> 1	Average [G-CSF] at 6 hrs (G-CSF; 50 μg/animal IP): 2100 pg/mL; Average [G-CSF] at 6 hrs (G-CSF; 100 μg/animal IP): 2400 pg/mL; Average [G-CSF] at 6 hrs (G-CSF; 300 μg/animal IP): 4400 pg/mL
N[C@@H](CC(=O)N1CCn2c(nnc2C(F)(F)F)C1)Cc1cc(F)c(F)cc1F [Sitagiptin, Sitagliptin]		100	950		Average [G-CSF] at 6 hrs (G-CSF; 1000 μg/animal PO): 340 pg/mL
